The values below come from patent publication US7557134B2, “N-(heteroaryl)-1H-indole-2-carboxamide derivatives and their use as vanilloid TRPV1 receptor ligands” (Sanofi-Aventis, priority 2005, dated 2009).

Counter-ions that a name gives are not always drawn.

Tested on in the first data set: not given
Assay: not given
Details: not given
By melting point is commonly meant the temperature of the solid-liquid transition. Regarding `O=C(Nc1cccc2cnccc12)c1cc2cc(F)ccc2n1Cc1cccc(F)c1`, the melting point is 206 to 207 °C.

The compound `O=C(Nc1ccc2ncsc2c1)c1cc2cc(C(F)(F)F)ccc2n1Cc1cccc(F)c1` gave a melting point of 191 to 192 °C.

For the compound `Cc1nc2cc(NC(=O)c3cc4cc(C(F)(F)F)ccc4n3Cc3cccc(F)c3)ccc2o1`, the melting point was in the range of 182 to 183 °C.

`Cc1nc2cc(NC(=O)c3cc4cc(C(F)(F)F)ccc4n3Cc3cccc(F)c3)ccc2s1` gave a melting point of 191 to 192 °C.

The compound `O=C(Nc1ccc2cnccc2c1)c1cc2cc(F)ccc2n1Cc1cccc(F)c1` displayed a melting point of 139 to 141 °C.

As to `Cn1cnc2cc(NC(=O)c3cc4cc(F)ccc4n3Cc3cccc(F)c3)ccc21`, the melting point was in the range of 248 to 251 °C.

As to `Cn1cnc2c(NC(=O)c3cc4cc(F)ccc4n3Cc3cccc(F)c3)cccc21`, the melting point was 195 to 197 °C.

For the compound `O=C(Nc1ccc2[nH]nnc2c1)c1cc2cc(C(F)(F)F)ccc2n1Cc1cccc(F)c1`, the melting point lay in the range of 167 to 174 °C.

In turn, `O=C(Nc1ccc2ncccc2c1)c1cc2cc(F)ccc2n1Cc1cccc(F)c1` showed a melting point of 208 to 210 °C.

`Cn1ncc2cc(NC(=O)c3cc4cc(F)ccc4n3Cc3cccc(F)c3)ccc21` had a melting point of 210 to 211 °C.

With `Cc1nc2cc(NC(=O)c3cc4cc(F)ccc4n3Cc3cccc(F)c3)ccc2o1`, the melting point lay within 188 to 189 °C.

`O=C(Nc1ccc2ncsc2c1)c1cc2cc(F)ccc2n1Cc1cccc(F)c1`: the melting point was 167 to 168 °C.

`Cc1nc2cc(NC(=O)c3cc4cc(F)ccc4n3Cc3cccc(F)c3)ccc2s1` came in with a melting point of 201 to 202 °C.

`O=C(Nc1ccc2[nH]nnc2c1)c1cc2cc(F)ccc2n1Cc1cccc(F)c1` gave a melting point of 220 to 221 °C.

`Cc1nc2cc(NC(=O)c3cc4cc(F)ccc4n3Cc3cccc(F)c3)ccc2n1C` yielded a melting point of 281 to 282 °C.

In the case of `O=C(Nc1ccc2nccnc2c1)c1cc2cc(F)ccc2n1Cc1cccc(F)c1`, the melting point is 188 to 189 °C.

`Cn1cnc2ccc(NC(=O)c3cc4cc(F)ccc4n3Cc3cccc(F)c3)cc21` showed a melting point of 215 to 216 °C.

`O=C(Nc1ccc2ccncc2c1)c1cc2cc(F)ccc2n1Cc1cccc(F)c1` (as salt: HCl) gave a melting point of 270 to 272 °C.

Turning to `Cc1nc2ccc(NC(=O)c3cc4cc(F)ccc4n3Cc3cccc(F)c3)cc2[nH]1` (as salt: HCl), the melting point is 195 to 200 °C.

`O=C(Nc1ccc2nc[nH]c2c1)c1cc2cc(F)ccc2n1Cc1cccc(F)c1` (as salt: HCl) displayed a melting point of 275 to 280 °C.

Turning to `CN1CCCc2ccc(NC(=O)c3cc4ccccc4n3-c3cccc(C(F)(F)F)c3)cc21` [Compound 2, N-(1-methyl-1,2,3,4-tetrahydroquinol-7-yl)-1-[3-(trifluoromethyl)phenyl]-1H-indole-2-carboxamide], the melting point was in the range of 92 to 95 °C.

In the case of `O=C(Nc1ccc2c(c1)NCCC2)c1cc2ccccc2n1-c1cccc(C(F)(F)F)c1` [Compound 4, N-(1,2,3,4-tetrahydroquinol-7-yl)-1-[3-(trifluoromethyl)phenyl]-1H-indole-2-carboxamide], the melting point was in the range of 140 to 143 °C.

As to `CC1C(=O)NOc2cc(NC(=O)c3cc4ccccc4n3-c3cccc(C(F)(F)F)c3)ccc21` (stereo not drawn) [Compound 5, N-(4-methyl-3-oxo-2H-benzoxazin-7-yl)-1-[3-(trifluoromethyl)phenyl]-1H-indole-2-carboxamide], the melting point lay within 198 to 200 °C.

For `CC1C(=O)NOc2ccc(NC(=O)c3cc4ccccc4n3-c3cccc(C(F)(F)F)c3)cc21` (stereo not drawn) [Compound 6, N-(4-methyl-3-oxo-2H-benzoxazin-6-yl)-1-[3-(trifluoromethyl)phenyl]-1H-indole-2-carboxamide], the melting point lay within 178 to 180 °C.

`O=C(Nc1ccc2occc2c1)c1cc2ccccc2n1-c1cccc(C(F)(F)F)c1` [Compound 8, N-(benzofuran-5-yl)-1-[3-(trifluoromethyl)phenyl]-1H-indole-2-carboxamide] showed a melting point of 141 to 143 °C.

In turn, `O=C(Nc1ccc2c(c1)CCNO2)c1cc2ccccc2n1-c1cccc(C(F)(F)F)c1` [Compound 10, N-(2,3-dihydrobenzoxazin-6-yl)-1-[3-(trifluoromethyl)phenyl]-1H-indole-2-carboxamide] yielded a melting point of 90 to 92 °C.

Compound `O=C1Cc2ccc(NC(=O)c3cc4ccccc4n3-c3cccc(C(F)(F)F)c3)cc2ON1` [Compound 11, N-(3-oxo-2H-benzoxazin-7-yl)-1-[3-(trifluoromethyl)phenyl]-1H-indole-2-carboxamide] registered a melting point of 214 to 216 °C.

As for `O=C(Nc1cccc2c1NCCC2)c1cc2ccccc2n1-c1cccc(C(F)(F)F)c1` [Compound 16, N-(1,2,3,4-tetrahydroquinol-8-yl)-1-[3-(trifluoromethyl)phenyl]-1H-indole-2-carboxamide], the melting point is 93 to 95 °C.

Compound `O=C(Nc1ccc2ocnc2c1)c1cc2ccccc2n1-c1cccc(C(F)(F)F)c1` [Compound 17, N-(benzoxazol-5-yl)-1-[3-(trifluoromethyl)phenyl]-1H-indole-2-carboxamide] came in with a melting point of 222 to 224 °C.

For `O=C1Cc2cc(NC(=O)c3cc4cc(C(F)(F)F)ccc4n3Cc3cccc(F)c3)ccc2N1` [Compound 25, N-(2-oxoindolin-5-yl)-5-trifluoromethyl-1-[(3-fluorophenyl)methyl]-1H-indole-2-carboxamide], the melting point lay in the range of 244 to 246 °C.

Compound `CN1CCCc2ccc(NC(=O)c3cc4cc(C(F)(F)F)ccc4n3Cc3cccc(F)c3)cc21` [Compound 27, N-(1-methyl-1,2,3,4-tetrahydroquinol-7-yl)-5-trifluoromethyl-1-[(3-fluorophenyl)methyl]-1H-indole-2-carboxamide] showed a melting point of 146 to 147 °C.

For `CS(=O)(=O)N1CCc2cc(NC(=O)c3cc4cc(C(F)(F)F)ccc4n3Cc3cccc(F)c3)ccc21` [Compound 31, N-(1-methylsulfonylindolin-5-yl)-5-trifluoromethyl-1-[(3-fluorophenyl)methyl]-1H-indole-2-carboxamide], the melting point was 214 to 215 °C.

`O=C1CCc2ccc(NC(=O)c3cc4cc(C(F)(F)F)ccc4n3Cc3cccc(F)c3)cc2N1` [Compound 41, N-(2-oxo-3,4-dihydroquinol-7-yl)-5-trifluoromethyl-1-[(3-fluorophenyl)methyl]-1H-indole-2-carboxamide]: the melting point lay in the range of 298 to 299 °C.

`O=C1Cc2cc(NC(=O)c3cc4cc(F)ccc4n3Cc3cccc(F)c3)ccc2N1` [Compound 42, N-(2-oxoindolin-5-yl)-5-fluoro-1-[(3-fluorophenyl)methyl]-1H-indole-2-carboxamide] gave a melting point of 249 to 250 °C.

In turn, `CS(=O)(=O)N1CCc2cc(NC(=O)c3cc4cc(F)ccc4n3Cc3cccc(F)c3)ccc21` [Compound 44, N-(1-methylsulfonylindolin-5-yl)-5-fluoro-1-[(3-fluorophenyl)methyl]-1H-indole-2-carboxamide] yielded a melting point of 192 to 193 °C.

`CCc1nc2cc(NC(=O)c3cc4cc(C(F)(F)F)ccc4n3Cc3cccc(F)c3)ccc2o1` [Compound 46, N-(2-ethylbenzoxazol-5-yl)-5-trifluoromethyl-1-[(3-fluorophenyl)methyl]-1H-indole-2-carboxamide] returned a melting point of 187 to 189 °C.

In turn, `O=C(Nc1ccc2oc(-c3ccccc3)nc2c1)c1cc2cc(C(F)(F)F)ccc2n1Cc1cccc(F)c1` [Compound 47, N-(2-phenylbenzoxazol-5-yl)-5-trifluoromethyl-1-[(3-fluorophenyl)methyl]-1H-indole-2-carboxamide] returned a melting point of 194 to 195 °C.

Turning to `COc1ccc2cc(C(=O)Nc3ccc4c(c3)NC(=O)CC4)n(Cc3ccc(F)cc3)c2c1` [Compound 53, N-(2-oxo-3,4-dihydroquinol-7-yl)-6-methoxy-1-[(4-fluorophenyl)methyl]-1H-indole-2-carboxamide], the melting point fell in the range of 255 to 256 °C.

The target of another data set is T1, TRPV1 receptor (Rattus norvegicus, UniProt O35433).
T1 construct: The neurons of the DRG naturally express the TRPV1 receptor; endogenous in cells; host or cells: primary culture of newborn rat dorsal root ganglion neurons
T1 sequence (O35433 whole entry): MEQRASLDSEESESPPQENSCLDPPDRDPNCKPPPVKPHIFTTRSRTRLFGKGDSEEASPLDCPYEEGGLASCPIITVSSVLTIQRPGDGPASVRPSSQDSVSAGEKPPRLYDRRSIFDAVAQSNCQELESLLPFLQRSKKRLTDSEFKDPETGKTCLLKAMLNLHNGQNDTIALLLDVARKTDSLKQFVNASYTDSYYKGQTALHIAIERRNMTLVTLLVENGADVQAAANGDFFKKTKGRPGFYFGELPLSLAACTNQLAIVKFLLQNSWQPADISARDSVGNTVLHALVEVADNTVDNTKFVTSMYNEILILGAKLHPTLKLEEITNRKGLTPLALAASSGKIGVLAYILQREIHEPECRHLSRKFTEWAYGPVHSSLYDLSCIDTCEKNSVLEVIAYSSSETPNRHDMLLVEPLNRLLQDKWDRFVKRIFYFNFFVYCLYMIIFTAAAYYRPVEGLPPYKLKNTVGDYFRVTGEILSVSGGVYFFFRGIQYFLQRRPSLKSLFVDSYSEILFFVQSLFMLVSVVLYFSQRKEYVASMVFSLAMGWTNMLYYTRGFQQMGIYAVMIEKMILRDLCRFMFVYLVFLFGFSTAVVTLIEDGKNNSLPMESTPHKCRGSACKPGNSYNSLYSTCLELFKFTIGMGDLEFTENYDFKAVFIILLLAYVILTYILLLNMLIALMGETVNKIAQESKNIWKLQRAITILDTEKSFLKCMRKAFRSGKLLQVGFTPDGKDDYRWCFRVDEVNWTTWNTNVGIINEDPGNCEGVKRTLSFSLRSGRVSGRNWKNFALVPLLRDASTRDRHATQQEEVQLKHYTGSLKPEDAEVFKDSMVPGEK
Description: Test of inhibition of the current induced with capsaicin on rat DRGs (whole-cell patch-clamp). Type of data set: cell-based. Particulars: DRG neuron; compound 1 nM; capsaicin response 300 nM; rat DRG neurons. As to the method:
Test of Inhibition of the Current Induced with Capsaicin on rat DRGs
• Primary culture of rat dorsal root ganglion (DRG) cells:
The neurons of the DRG naturally express the TRPV1 receptor.
The primary cultures of newborn rat DRGs are prepared using 1-day-old rats. Briefly, after dissection, the ganglions are trypsinized and the cells dissociated by mechanical trituration. The cells are resuspended in an Eagle basal culture medium containing 10% fetal calf serum, 25 mM KCl, 2 mM glutamine, 100 μg/ml gentamicin and 50 ng/ml of NGF, and then deposited on glass slides coated with laminin (0.25×10^6 cells per slide), which are then placed in Corning 12-well dishes. The cells are incubated at 37° C. in a humidified atmosphere containing 5% CO2 and 95% air. Cytosine β-D-arabinoside (1 μM) is added 48 hours after culturing, to prevent the growth of non-neuronal cells. The slides are transferred into experimental chambers for the patch-clamp studies after 7-10 days of culturing.
The measuring chambers (volume 800 μl) containing the cell preparation are placed on the platform of an inverted microscope (Olympus IMT2) equipped with Hoffman optics (Modulation Contrast, New York) and observed at a magnification of 400×. The chambers are continuously gravity-influxed (2.5 ml/min) using a solution distributor accepting 8 inlets and whose sole outlet, consisting of a polyethylene tube (aperture 500 μm), is placed less than 3 mm from the cell under study. The “whole cell” configuration of the patch-clamp technique was used. […] The overall currents (membrane potential set at […]) are recorded with an Axopatch 1 D amplifier (Axon Instruments, Foster city, Calif.), connected to a PC running the Pclamp8 software (Axon Instrument). The current plots are recorded on paper and simultaneously digitized (sampling frequency 15 to 25 Hz) and acquired on the hard drive of the PC.
The application of a 300 nM capsaicin solution induces on the DRG cells (voltage set at −70 mV) an entering cationic current. […] The results are expressed as a percentage of inhibition of the control capsaicin response.
A general note: In patch-clamp work, channel activity is measured electrically.
Broadly, the inhibition is the percentage by which the read-out fell short of the control. A lower inhibition goes with a response near the control. `Cn1ncc2cc(NC(=O)c3cc4cc(C(F)(F)F)ccc4n3Cc3cccc(F)c3)ccc21` [Compound 19, N-(1-methyl-1H-indazol-5-yl)-5-trifluoromethyl-1-[(3-fluorophenyl)methyl]-1H-indole-2-carboxamide] displayed an inhibition at 0.001 µM of 48%.
